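Results reflect a 48-hour exposure of cells in 96-well plates to compound at five concentrations. GI50 marks 50% less growth. The concentration for full growth arrest is given as TGI.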
What was measured:
Assay in all cases: NCI tumour cell line growth inhibition, 48 h
K-562 leukemia = test system: K-562 leukemia
HCC-2998 colon = test system: HCC-2998 colon
UO-31 renal = test system: UO-31 renal
A498 renal = test system: A498 renal
COLO 205 colon = test system: COLO 205 colon
M14 melanoma = test system: M14 melanoma
SK-OV-3 ovarian = test system: SK-OV-3 ovarian
MOLT-4 leukemia = test system: MOLT-4 leukemia
EKVX NSCLC = test system: EKVX NSCLC
SNB-75 CNS = test system: SNB-75 CNS
786-0 renal = test system: 786-0 renal
ACHN renal = test system: ACHN renal
HS 578T breast = test system: HS 578T breast
OVCAR-8 ovarian = test system: OVCAR-8 ovarian
SR leukemia = test system: SR leukemia
NCI-H460 lung = test system: NCI-H460 lung
LOX IMVI melanoma = test system: LOX IMVI melanoma
IGROV1 ovarian = test system: IGROV1 ovarian
NCI-H23 lung = test system: NCI-H23 lung
BT-549 breast = test system: BT-549 breast
SK-MEL-5 melanoma = test system: SK-MEL-5 melanoma
PC-3 prostate = test system: PC-3 prostate
DU-145 prostate = test system: DU-145 prostate
UACC-62 melanoma = test system: UACC-62 melanoma
HCT-15 colon = test system: HCT-15 colon
SW-620 colon = test system: SW-620 colon
SK-MEL-2 melanoma = test system: SK-MEL-2 melanoma
NCI-H522 lung = test system: NCI-H522 lung

**Q.** With COc1ccc(C(O)c2cc3c(N)c(C(=O)Nc4ccccc4)sc3nc2C)cc1 (stereo not given) as the molecule, how does the TGI (K-562 leukemia) read?
**A.** The TGI was over 100000 nM.

**Q.** What about the GI50 (HCC-2998 colon) of the same molecule?
**A.** Its GI50 is 102 nM.

**Q.** What about the TGI (HCC-2998 colon) of the same molecule?
**A.** The TGI was 3790 nM.

**Q.** What about the GI50 (UO-31 renal) of the same molecule?
**A.** The GI50 was 70.6 nM.

**Q.** What about the TGI (UO-31 renal) of the same molecule?
**A.** The TGI was 49800 nM.

**Q.** And the GI50 (A498 renal)?
**A.** Its GI50 is 26.2 nM.

**Q.** And the TGI (A498 renal)?
**A.** Its TGI is 2790 nM.

**Q.** What about the GI50 (COLO 205 colon) of the same molecule?
**A.** Its GI50 is 219 nM.

**Q.** What about the TGI (COLO 205 colon) of the same molecule?
**A.** The TGI was 1800 nM.

**Q.** And the GI50 (M14 melanoma)?
**A.** Its GI50 is 34.9 nM.

**Q.** What about the TGI (M14 melanoma) of the same molecule?
**A.** The TGI was over 100000 nM.

**Q.** What about the GI50 (SK-OV-3 ovarian) of the same molecule?
**A.** Its GI50 is 53.9 nM.

**Q.** And the TGI (SK-OV-3 ovarian)?
**A.** Its TGI is 25400 nM.

**Q.** What about the GI50 (MOLT-4 leukemia) of the same molecule?
**A.** The GI50 was 50.8 nM.

**Q.** And the TGI (MOLT-4 leukemia)?
**A.** Its TGI is over 100000 nM.

**Q.** What about the GI50 (EKVX NSCLC) of the same molecule?
**A.** The GI50 was 61.7 nM.

**Q.** And the TGI (EKVX NSCLC)?
**A.** The TGI was over 100000 nM.

**Q.** What about the GI50 (SNB-75 CNS) of the same molecule?
**A.** Its GI50 is 26.7 nM.

**Q.** What about the TGI (SNB-75 CNS) of the same molecule?
**A.** Its TGI is 21900 nM.

**Q.** What about the GI50 (786-0 renal) of the same molecule?
**A.** Its GI50 is 76.3 nM.

**Q.** And the TGI (786-0 renal)?
**A.** The TGI was 25300 nM.

**Q.** And the GI50 (ACHN renal)?
**A.** The GI50 was 68.3 nM.

**Q.** And the TGI (ACHN renal)?
**A.** Its TGI is 27500 nM.

**Q.** What about the GI50 (HS 578T breast) of the same molecule?
**A.** The GI50 was 30.5 nM.

**Q.** And the TGI (HS 578T breast)?
**A.** The TGI was 3010 nM.

**Q.** And the GI50 (OVCAR-8 ovarian)?
**A.** The GI50 was 63.6 nM.

**Q.** And the TGI (OVCAR-8 ovarian)?
**A.** Its TGI is over 100000 nM.

**Q.** What about the GI50 (SR leukemia) of the same molecule?
**A.** Its GI50 is 33.3 nM.

**Q.** And the TGI (SR leukemia)?
**A.** Its TGI is over 100000 nM.

**Q.** And the GI50 (NCI-H460 lung)?
**A.** The GI50 was 36.1 nM.

**Q.** What about the TGI (NCI-H460 lung) of the same molecule?
**A.** The TGI was 11100 nM.

**Q.** What about the GI50 (LOX IMVI melanoma) of the same molecule?
**A.** Its GI50 is 53.9 nM.

**Q.** What about the TGI (LOX IMVI melanoma) of the same molecule?
**A.** The TGI was over 100000 nM.

**Q.** What about the GI50 (IGROV1 ovarian) of the same molecule?
**A.** The GI50 was 94 nM.

**Q.** And the TGI (IGROV1 ovarian)?
**A.** Its TGI is 22600 nM.

**Q.** And the GI50 (NCI-H23 lung)?
**A.** Its GI50 is 75.4 nM.

**Q.** What about the TGI (NCI-H23 lung) of the same molecule?
**A.** The TGI was over 50100 nM.

**Q.** And the GI50 (BT-549 breast)?
**A.** The GI50 was 186 nM.

**Q.** And the TGI (BT-549 breast)?
**A.** Its TGI is 36400 nM.

**Q.** And the GI50 (SK-MEL-5 melanoma)?
**A.** The GI50 was 35.9 nM.

**Q.** And the TGI (SK-MEL-5 melanoma)?
**A.** The TGI was 591 nM.

**Q.** What about the GI50 (PC-3 prostate) of the same molecule?
**A.** The GI50 was 140 nM.

**Q.** And the TGI (PC-3 prostate)?
**A.** Its TGI is over 74300 nM.

**Q.** What about the GI50 (DU-145 prostate) of the same molecule?
**A.** Its GI50 is 41.4 nM.

**Q.** And the TGI (DU-145 prostate)?
**A.** Its TGI is 50600 nM.

**Q.** And the GI50 (UACC-62 melanoma)?
**A.** The GI50 was 39.7 nM.

**Q.** What about the TGI (UACC-62 melanoma) of the same molecule?
**A.** Its TGI is 19400 nM.

**Q.** And the GI50 (HCT-15 colon)?
**A.** Its GI50 is 40.3 nM.

**Q.** What about the TGI (HCT-15 colon) of the same molecule?
**A.** The TGI was over 100000 nM.

**Q.** What about the GI50 (SW-620 colon) of the same molecule?
**A.** Its GI50 is 39.1 nM.

**Q.** What about the TGI (SW-620 colon) of the same molecule?
**A.** Its TGI is over 100000 nM.

**Q.** What about the GI50 (SK-MEL-2 melanoma) of the same molecule?
**A.** The GI50 was 238 nM.

**Q.** And the TGI (SK-MEL-2 melanoma)?
**A.** The TGI was over 100000 nM.

**Q.** And the GI50 (NCI-H522 lung)?
**A.** The GI50 was 34.7 nM.

**Q.** What about the TGI (NCI-H522 lung) of the same molecule?
**A.** The TGI was 2570 nM.

From PubChem BioAssay (NCI)
